# From ChEMBL document CHEMBL4418479, “Diamino heterocyclic carboxamide compound” (2016)
# The source made the active and inactive calls. The rule behind the calls is not given here.
# How the values were obtained:
# NCI-H2228 = experiment: Antitumor activity against EML4-ALK fusion protein harboring human NCI-H2228 cells xenografted in NOD/SCID mouse assessed as inhibition of tumor growth at 1 mg/kg, po dosed once daily for 14 days starting 3 weeks of tumor cell inoculation and measured every other day relative to untreated control; type: functional
# [1] = target: ALK tyrosine kinase receptor (Homo sapiens) (UniProt Q9UM73); conditions: 5 nM
# Description: Inhibition of N-terminal GST-tagged human ALK cytoplasmic domain (1058 to 1620 amino acids) expressed in baculovirus expression system at 5 nM relative to control
# [2] = Antitumor activity against mouse NIH-3T3/EML4-ALK cells implanted in Balb/c mouse assessed as inhibition of tumor growth at 10 mg/kg, po dosed once daily for 5 days and measured every other day relative to untreated control; type: functional; conditions: NIH3T3, po, 120 h, read-out: TGI
# EML4-ALK [3] = target: EML4-ALK (Homo sapiens, UniProt Q9UM73); experiment: Inhibition of recombinant FLAG-tagged EML4-ALK fusion protein (unknown origin) expressed in mouse BA/F3 cells using peptide substrate and ATP incubated for 1 hr by HTRF assay
# EML4-ALK [4] = target: EML4-ALK (Homo sapiens, UniProt Q9UM73+Q9HC35); experiment: Inhibition of recombinant FLAG-tagged EML4-ALK fusion protein (unknown origin) expressed in mouse BA/F3 cells assessed as inhibition of cell growth incubated for 2 days by alamar blue dye based assay
# Sequence of EML4-ALK (Homo sapiens, UniProt Q9UM73+Q9HC35) (Q9UM73 whole entry, the tested form may be a part): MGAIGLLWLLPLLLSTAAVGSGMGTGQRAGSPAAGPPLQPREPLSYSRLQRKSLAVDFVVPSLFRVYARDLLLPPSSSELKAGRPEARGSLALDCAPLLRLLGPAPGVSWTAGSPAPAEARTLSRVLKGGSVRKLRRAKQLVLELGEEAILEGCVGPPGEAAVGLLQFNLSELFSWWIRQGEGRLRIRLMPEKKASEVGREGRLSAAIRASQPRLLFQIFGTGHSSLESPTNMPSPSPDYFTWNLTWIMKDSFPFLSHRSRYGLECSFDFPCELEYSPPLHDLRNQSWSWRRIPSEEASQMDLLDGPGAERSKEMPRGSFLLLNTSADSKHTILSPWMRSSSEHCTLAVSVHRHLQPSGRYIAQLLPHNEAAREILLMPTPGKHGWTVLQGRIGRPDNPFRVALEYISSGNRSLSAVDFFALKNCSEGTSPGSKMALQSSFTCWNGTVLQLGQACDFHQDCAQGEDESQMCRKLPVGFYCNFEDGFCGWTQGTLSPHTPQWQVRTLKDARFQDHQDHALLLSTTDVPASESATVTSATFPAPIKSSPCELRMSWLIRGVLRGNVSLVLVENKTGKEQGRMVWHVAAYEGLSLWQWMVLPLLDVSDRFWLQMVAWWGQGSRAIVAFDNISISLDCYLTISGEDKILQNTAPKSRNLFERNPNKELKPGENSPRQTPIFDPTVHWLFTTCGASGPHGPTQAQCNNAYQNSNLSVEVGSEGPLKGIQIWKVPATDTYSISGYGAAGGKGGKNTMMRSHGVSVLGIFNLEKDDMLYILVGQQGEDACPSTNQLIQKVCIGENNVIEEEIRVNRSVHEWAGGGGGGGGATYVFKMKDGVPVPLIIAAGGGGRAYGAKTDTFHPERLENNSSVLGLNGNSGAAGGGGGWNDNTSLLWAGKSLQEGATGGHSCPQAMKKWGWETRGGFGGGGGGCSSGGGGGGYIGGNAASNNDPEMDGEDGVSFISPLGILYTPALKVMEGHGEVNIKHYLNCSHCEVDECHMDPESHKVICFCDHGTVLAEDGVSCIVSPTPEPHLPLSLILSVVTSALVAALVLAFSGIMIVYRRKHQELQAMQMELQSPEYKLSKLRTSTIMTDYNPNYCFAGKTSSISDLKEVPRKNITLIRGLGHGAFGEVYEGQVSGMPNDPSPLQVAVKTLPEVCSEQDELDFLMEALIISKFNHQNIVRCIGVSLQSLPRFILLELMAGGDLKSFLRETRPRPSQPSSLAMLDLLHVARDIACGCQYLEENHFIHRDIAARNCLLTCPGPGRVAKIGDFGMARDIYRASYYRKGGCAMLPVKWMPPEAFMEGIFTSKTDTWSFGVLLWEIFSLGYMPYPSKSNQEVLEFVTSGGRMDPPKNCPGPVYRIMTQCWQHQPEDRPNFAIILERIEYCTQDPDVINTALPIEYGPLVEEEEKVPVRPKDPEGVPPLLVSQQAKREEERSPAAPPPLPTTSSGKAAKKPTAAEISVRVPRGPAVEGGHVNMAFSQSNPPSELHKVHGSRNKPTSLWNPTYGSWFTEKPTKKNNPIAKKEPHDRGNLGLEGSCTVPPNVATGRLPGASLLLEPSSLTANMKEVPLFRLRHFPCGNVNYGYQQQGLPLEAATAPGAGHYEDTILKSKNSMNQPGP
# Sequence of EML4-ALK (Homo sapiens, UniProt Q9UM73+Q9HC35) (Q9HC35 whole entry, the tested form may be a part): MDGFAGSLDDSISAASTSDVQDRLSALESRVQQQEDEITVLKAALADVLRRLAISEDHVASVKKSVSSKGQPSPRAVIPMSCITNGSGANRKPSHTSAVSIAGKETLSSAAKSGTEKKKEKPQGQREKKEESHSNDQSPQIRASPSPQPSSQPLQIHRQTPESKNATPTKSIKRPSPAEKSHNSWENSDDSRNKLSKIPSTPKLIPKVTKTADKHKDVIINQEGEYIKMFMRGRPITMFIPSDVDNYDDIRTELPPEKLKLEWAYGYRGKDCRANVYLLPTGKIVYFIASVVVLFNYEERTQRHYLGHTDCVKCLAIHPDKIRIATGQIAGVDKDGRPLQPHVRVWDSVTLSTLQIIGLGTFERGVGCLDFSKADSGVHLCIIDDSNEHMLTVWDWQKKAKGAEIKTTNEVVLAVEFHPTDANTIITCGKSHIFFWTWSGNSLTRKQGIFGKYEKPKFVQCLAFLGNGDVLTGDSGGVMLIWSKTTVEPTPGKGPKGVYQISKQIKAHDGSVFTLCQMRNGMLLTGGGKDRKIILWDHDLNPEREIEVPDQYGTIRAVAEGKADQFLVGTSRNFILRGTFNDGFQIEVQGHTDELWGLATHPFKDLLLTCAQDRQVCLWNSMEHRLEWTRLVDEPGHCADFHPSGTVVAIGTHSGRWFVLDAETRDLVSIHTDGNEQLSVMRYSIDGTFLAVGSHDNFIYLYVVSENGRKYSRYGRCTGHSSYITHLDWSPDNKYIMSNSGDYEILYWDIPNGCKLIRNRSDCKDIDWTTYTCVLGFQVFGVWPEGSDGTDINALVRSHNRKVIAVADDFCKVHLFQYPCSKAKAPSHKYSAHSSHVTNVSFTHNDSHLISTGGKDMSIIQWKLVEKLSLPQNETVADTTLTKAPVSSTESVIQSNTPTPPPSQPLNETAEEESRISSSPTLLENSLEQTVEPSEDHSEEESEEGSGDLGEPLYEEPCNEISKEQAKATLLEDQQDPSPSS
# Sequence of EML4-ALK (Homo sapiens, UniProt Q9UM73) (Q9UM73 whole entry, the tested form may be a part): as the sequence (Q9UM73 whole entry, the tested form may be a part) above
# Sequence of EML4-ALK (Homo sapiens, UniProt Q9UM73) (Q9HC35 whole entry, further chain, the tested form may be a part): as the sequence (Q9HC35 whole entry, the tested form may be a part) above
# Sequence of ALK tyrosine kinase receptor (Homo sapiens) (Q9UM73 19-1620 limits assumed): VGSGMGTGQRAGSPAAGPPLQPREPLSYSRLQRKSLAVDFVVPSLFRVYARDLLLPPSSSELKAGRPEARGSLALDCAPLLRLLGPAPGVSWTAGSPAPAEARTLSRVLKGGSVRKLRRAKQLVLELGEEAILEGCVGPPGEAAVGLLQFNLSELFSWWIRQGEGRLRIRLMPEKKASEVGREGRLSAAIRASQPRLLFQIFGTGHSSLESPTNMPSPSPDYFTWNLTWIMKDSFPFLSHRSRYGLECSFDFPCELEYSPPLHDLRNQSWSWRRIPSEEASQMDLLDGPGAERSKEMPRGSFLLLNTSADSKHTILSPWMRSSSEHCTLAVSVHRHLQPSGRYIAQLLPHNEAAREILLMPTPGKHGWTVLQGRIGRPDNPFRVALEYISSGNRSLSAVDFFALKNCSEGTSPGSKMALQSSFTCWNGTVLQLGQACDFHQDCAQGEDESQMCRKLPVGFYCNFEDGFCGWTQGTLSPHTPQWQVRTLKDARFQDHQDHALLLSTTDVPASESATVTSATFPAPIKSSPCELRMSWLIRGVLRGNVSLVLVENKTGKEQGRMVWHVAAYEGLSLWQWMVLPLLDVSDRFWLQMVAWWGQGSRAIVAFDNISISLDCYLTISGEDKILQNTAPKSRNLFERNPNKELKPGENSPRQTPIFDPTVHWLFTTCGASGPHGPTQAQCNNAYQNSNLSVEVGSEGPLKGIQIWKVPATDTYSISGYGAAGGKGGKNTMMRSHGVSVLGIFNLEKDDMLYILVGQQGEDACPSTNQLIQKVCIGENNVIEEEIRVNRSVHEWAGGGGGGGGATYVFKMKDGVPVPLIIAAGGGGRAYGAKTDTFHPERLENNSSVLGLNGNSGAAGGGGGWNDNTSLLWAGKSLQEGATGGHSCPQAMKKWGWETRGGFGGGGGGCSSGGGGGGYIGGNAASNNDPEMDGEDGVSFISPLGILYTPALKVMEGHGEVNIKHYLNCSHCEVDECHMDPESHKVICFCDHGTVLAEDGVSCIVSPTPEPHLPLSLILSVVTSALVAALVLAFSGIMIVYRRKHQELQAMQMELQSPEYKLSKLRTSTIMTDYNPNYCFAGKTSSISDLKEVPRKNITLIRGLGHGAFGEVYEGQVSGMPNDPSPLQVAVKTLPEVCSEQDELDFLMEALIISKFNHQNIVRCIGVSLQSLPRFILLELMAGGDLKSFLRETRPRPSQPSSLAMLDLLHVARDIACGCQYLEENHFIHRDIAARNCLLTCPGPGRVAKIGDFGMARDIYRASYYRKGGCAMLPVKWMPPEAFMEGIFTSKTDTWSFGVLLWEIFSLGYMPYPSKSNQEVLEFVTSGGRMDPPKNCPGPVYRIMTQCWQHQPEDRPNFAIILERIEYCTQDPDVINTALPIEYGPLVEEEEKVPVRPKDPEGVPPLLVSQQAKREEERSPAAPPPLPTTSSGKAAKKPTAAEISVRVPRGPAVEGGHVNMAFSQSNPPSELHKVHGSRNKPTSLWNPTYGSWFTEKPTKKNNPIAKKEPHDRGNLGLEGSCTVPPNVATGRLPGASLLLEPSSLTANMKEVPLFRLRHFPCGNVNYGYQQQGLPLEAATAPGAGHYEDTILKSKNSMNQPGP
inhibition [1],SMILES,also measured
> 50%,CCc1nc(C(N)=O)c(Nc2ccc(N3CCC(N4CCN(C)CC4)CC3)c(C)c2)nc1N[C@H]1CC[C@@](C)(O)CC1,–
> 50%,CCc1nc(C(N)=O)c(Nc2ccc(N3CCC(N4CCN(C)CC4)CC3)c(C)c2)nc1N[C@H]1CC[C@](C)(O)CC1,–
> 50%,CCc1nc(C(N)=O)c(Nc2ccc(N3CCC(N4CCN(C)CC4)CC3)cc2)nc1NC1CCOCC1,inhibition in vivo at 10 mg/kg [2]: 79%
> 50%,CC(C)c1nc(C(N)=O)c(Nc2ccc(N3CCN(C)CC3)cc2)nc1N[C@H]1CC[C@H](O)CC1,–
> 50%,CCc1nc(C(N)=O)c(Nc2ccc(N3CCN(C)CC3)cc2)nc1N[C@H]1CC[C@H](O)CC1,–
> 50%,CCc1nc(C(N)=O)c(Nc2ccc(N3CCC(N4CCN(C)CC4)CC3)c(OC)c2)nc1NC1CCOCC1,–

# More lines, now with the values behind:
SMILES,inhibition [1],also measured
NC(=O)c1cnc(N[C@@H]2CCCC[C@@H]2N)nc1Nc1ccc(-c2ccc(N3CCOCC3)cc2)cc1 (racemic),–,TGI (NCI-H2228): inactive
Cc1cc(Nc2nc(N[C@H]3CC[C@H](O)CC3)c(Cl)nc2C(N)=O)ccc1N1CCC(N2CCN(C)CC2)CC1,> 50%,–
CCc1nc(C(N)=O)c(Nc2ccc(N3CCC(N4CCN(C)CC4)CC3)c(C)c2)nc1NC1CCOCC1,> 50%,–
CCc1nc(C(N)=O)c(Nc2ccc(N3CCN(C)CC3)c(F)c2)nc1NC1CCOCC1,> 50%,–
CC(C)c1nc(C(N)=O)c(Nc2ccc(N3CCC(N4CCN(C)CC4)CC3)c(C(F)(F)F)c2)nc1N[C@H]1CC[C@H](O)CC1,> 50%,–
CCc1nc(C(N)=O)c(Nc2ccc(N3CCN(C4CCN(C)CC4)CC3)c(C)c2)nc1NC1CCOCC1,> 50%,–
CCc1nc(C(N)=O)c(Nc2ccc(N3CCN(C(C)C)CC3)c(C)c2)nc1N[C@H]1CC[C@H](O)CC1,> 50%,inhibition in vivo at 10 mg/kg [2]: 81%
CCc1nc(C(N)=O)c(Nc2ccc(N3CCC(N4CCN(C)CC4)CC3)c(C)c2)nc1N[C@H]1CC[C@](O)(C(C)C)CC1,–,IC50 (EML4-ALK [3]): 2.6 nM
CCc1nc(C(N)=O)c(Nc2ccc3cnn(C)c3c2)nc1N[C@H]1CC[C@H](O)CC1,–,IC50 (EML4-ALK [4]): 76 nM
CCc1nc(C(N)=O)c(Nc2ccc(N3CCC(N4CCN(C)CC4)CC3)cc2)nc1N[C@H]1CC[C@H](O)CC1,> 50%,–
CCc1nc(C(N)=O)c(Nc2ccc(N3CCC(N4CCN(C)CC4)CC3)c(C)c2)nc1N[C@H]1CC[C@@](O)(CC)CC1,–,IC50 (EML4-ALK [3]): 2.8 nM
CC(C)c1nc(C(N)=O)c(Nc2ccc(N3CCN(C)CC3)cc2)nc1NC1CCOCC1,> 50%,–
CCc1nc(C(N)=O)c(Nc2ccc(N3CCC(N4CCN(C)CC4)CC3)c(C)c2)nc1N[C@H]1CC[C@@](O)(C(C)C)CC1,–,IC50 (EML4-ALK [3]): 4.1 nM
CCc1nc(C(N)=O)c(Nc2ccc(N3CCC(N4CCN(C)CC4)CC3)c(C)c2)nc1N[C@H]1CC[C@H](O)CC1,> 50%,inhibition in vivo at 10 mg/kg [2]: 92%
CCc1nc(C(N)=O)c(Nc2cccc(C)c2)nc1NCCN(C)C,–,TGI (NCI-H2228): inactive
COc1cc(Nc2nc(NC3CCOCC3)c(C(C)C)nc2C(N)=O)ccc1N1CCN(C)CC1,> 50%,inhibition in vivo at 10 mg/kg [2]: 63%
CCc1nc(C(N)=O)c(Nc2ccc(N3CCC(N4CCN(C)CC4)CC3)c(C)c2)nc1N[C@H]1CC[C@](O)(CC)CC1,–,IC50 (EML4-ALK [3]): 3.1 nM
CC(C)c1nc(C(N)=O)c(Nc2ccc(N3CCC(N4CCN(C)CC4)CC3)cc2)nc1NC1CCOCC1,> 50%,inhibition in vivo at 1 mg/kg (NCI-H2228; read-out: TGI): 69%
CCc1nc(C(N)=O)c(Nc2ccc(N3CCC(N4CCN(C)CC4)CC3)c(C(F)(F)F)c2)nc1N[C@H]1CC[C@H](O)CC1,> 50%,inhibition in vivo at 10 mg/kg [2]: 81%
